Measured values reported in patent EP0193637A1, “Use for the improvement or treatment of various diseases associated with cerebrovascular damages” (Yoshitomi Pharmaceutical Industries, Ltd., priority 1985, dated 1986).
Where a name gives a salt, the structure may show the parent alone. Marks after values point to notes of the source that are not given here.

Legend:
KCN-induced coma = assay: KCN-induced coma, recovery of righting reflex; assay type: in vivo, mice; conditions: values are log t, 10 mg/kg i.p. 30 minutes prior to KCN 1.8 mg/kg i.v., p<0.01 vs. control
Experimental: Male dd-mice were intraperitoneally injected with Compound A 30 minutes prior to the intravenous injection of 1.8 mg/kg of KCN-saline solution. The time to recovery of righting reflex, coma time, was determined.

CO2-induced amnesia = assay: CO2-induced amnesia, one trial step-through passive avoidance response; assay type: in vivo, mice; conditions: 5 mg/kg i.p. immediately after CO2, test 24 hours after training, up to 600 seconds, mean ± standard error, p<0.01 vs. CO2-vehicle control
Excerpt: (§1) Male ddY-mice, weighing 19-25 g were used. The test apparatus consisted of a two-compartment avoidance box with a large 10x23x20 cm compartment illuminated by a 40W bulb, and a. small 14x14x20 cm shock compartment, painted black, with a floor made of metal rods 6 mm apart through which a foot shock (FS, 0.25 mA, 2 seconds) could be delivered. The two compartments were separated by a guillotine door.
(§2) The training procedure consisted of placing the mouse in the center of the large compartment. Within 20 to 50 seconds the animal entered the small compartment and was immediately given FS, and removed from the compartment. The animals were exposed to C02 for 8 seconds or given an electroconvulsive shock (ECS, 30 mA, 0.5 seconds) immediately after FS, or were injected with an amnestic agent scopolamine (SCO, 3 mg/kg i.p.) 20 minutes before FS.
(§3) The testing procedure consisted of placing the animal in the large compartment as above and noting the latency to enter the dark compartment up to 600 seconds. The training-to-test interval was 24 hours. Compound A or vehicle (0.5 % methylcellulose) was injected intraperitoneally immediately after exposure to C02 or ECS. For the scopolamine induced amnesia model, they were injected intraperitoneally immediately after FS. Thirty mice were used per test group.

KCN-induced mortality = assay: KCN-induced mortality; assay type: in vivo, mice; conditions: 30 mg/kg i.p. 30 minutes before KCN 2.5 mg/kg i.v.
Acute toxicity in mice = conditions: mouse, in vivo, po, one week-observation
Experimental: (§4) Compound A was orally administered to male Wistar-rats weighing about 200 g and male ddY-mice weighing 20-25 g. After one week-observation, the LD50 value (mg/kg) was measured.

[1] = test system: scopolamine induced amnesia; assay: Scopolamine induced amnesia, one trial step-through passive avoidance response; assay type: in vivo, mice; conditions: scopolamine (3 mg/kg i.p.) induced amnesia; 5 mg/kg i.p. immediately after foot shock; test 24 hours after training; mean ± standard error; p<0.05 vs. SCO-vehicle control
Excerpt: as §1, §2, §3

Acute toxicity in rats = conditions: rat, in vivo, po, one week-observation
Experimental: as §4

normabaric hypoxia = assay: Normobaric hypoxia, time to respiratory failure; assay type: in vivo, mice; conditions: 30 mg/kg i.p., nitrogen and oxygen (96:4), mean ± standard error, p<0.01 vs. control
Experimental: The experiment was performed according to the method by Yasuda et al described in Arch. Int. Pharmacolodyn., vol. 233, p. 136-144 (1978).
Three male ddY-mice were introduced into a 300 ml glass container in which circulated a current of a gas mixture of nitrogen and oxygen (96:4) at the rate of about 51/minutes. The time to respiratory failure was recorded.

ECS = assay: Electroconvulsive shock (ECS) induced amnesia, one trial step-through passive avoidance response; assay type: in vivo, mice; conditions: ECS-induced amnesia (30 mA, 0.5 seconds); 5 mg/kg i.p. immediately after ECS; test 24 hours after training; mean ± standard error; p<0.05 vs. ECS-vehicle control
Excerpt: as §1, §2, §3

[2] = test system: 2-deoxy-D-glucose uptake into rat brain; assay: Chronic administration, 2-deoxy-D-glucose uptake into rat brain; assay type: in vivo; conditions: 10 mg/kg i.p. once daily for 14 days; for dpm/mg tissue dpm/µl serum: 3H-2-deoxy-D-glucose 27 hours after last administration, mean ± standard error, p<0.05 vs. control; for dpm/mg tissue dpm/µl serum (Δ%): change vs. control
Experimental: 2-deoxy-D-glucose uptake into rat brain Compound A was administered intraperitoneally to male Wistar-rat once daily for 14 days. ^3H-2-deoxy-D-glucose (40 µCi/kg, i.p.) was injected to rats 27 hours after the last administration of Compound A. Fifteen minuts after the injection of 3H-2-deoxy-D-glucose, the animals were decapitated and blood from trunk was collected simultaneously. The brains were dissected into five regions. Radioactivity in the brain sample and serum was counted using Soluene-350 and toluene scintillator. […] Each value represents the mean ± standard error.

[3] = test system: cerebral energy state in KCN-induced anoxia mice; assay: Cerebral energy state in KCN-induced anoxia mice; assay type: in vivo; conditions: brain, p<0.01 vs. control; for ADP / AMP / ATP / Glucose / Lactate / P-creatine: Compound A i.p.; for ECP (Energy charge potential): ECP = ATP + 0.5xADP / ATP + ADP + AMP
Experimental: Male ddY-mice weighing 22-26 g were used. Compound A was dissolved in 0.5 % methylcellulose solution and injected intraperitoneally. After administration, 2.5 mg/kg of KCN in saline was injected intravenously. The animals were frozen in liquid nitrogen at 30 or 120 seconds laterm After removing and weighing, the frozen cerebrums were powdered.
According to the procedure by Lowry, O. H. et al described in "A flexible system of enzymatic analysis" (Academic press 1978) or by Yasuda et al described in Arch. Int. Pharmacodyn., vol. 242, p. 77-85 (1979), contents of Phosphocreatine (P-creatine), ATP, ADP, AMP, glucose and lactate in brain were determined. Concentrations (µ moles/g of brain) were calculated. Student's t-test was used in the statical analysis of the results.

[4] = 30 sec. after KCN 2.5mg/kg i.v.
[5] = 120 sec. after KCN 2.5mg/kg i.v.

c1csc(Cc2ccccc2OCC2CNCCO2)c1 (stereo not drawn) [Compound A, 2-(2-(2-thienylmethyl)phenoxymetyl)morpholine maleate]
Coma time (sec.) (log t ± S.E.) (KCN-induced coma): 1.95 ± 0.039 sec.
Latency (CO2-induced amnesia): 324.5 ± 37.1 s
Lethality (KCN-induced mortality): 0
Survival animals/ animals used (KCN-induced mortality; p<0.01 vs. control): 10/10**
LD50 at 168 h (Acute toxicity in mice): 716 mg/kg
Latency [1]: 169.6 ± 26.7 s
LD50 at 168 h (Acute toxicity in rats): 1710 mg/kg
Survival time (normabaric hypoxia): 3.87 ± 0.32 min
Latency (ECS): 357.5 ± 46.5 s
dpm/mg tissue dpm/µl serum ([2]; Hippocampus): 0.90 ± 0.07
dpm/mg tissue dpm/µl serum (Δ%) ([2]; Hippocampus): +20%
dpm/mg tissue dpm/µl serum ([2]; Parietal cortex): 1.27 ± 0.11
dpm/mg tissue dpm/µl serum (Δ%) ([2]; Parietal cortex): +21%
ADP [3, 4]: 0.599 ± 0.020 µmol/g of wet tissue
AMP [3, 4]: 0.107 ± 0.009 µmol/g of wet tissue
ATP [3, 4]: 2.62 ± 0.07 µmol/g of wet tissue
Glucose [3, 4]: 1.25 ± 0.11 µmol/g of wet tissue
Lactate [3, 4]: 4.92 ± 0.17 µmol/g of wet tissue
P-creatine [3, 4]: 2.52 ± 0.13 µmol/g of wet tissue
ECP (Energy charge potential) [3, 4]: 0.880 ± 0.004
ADP [3, 5]: 0.509 ± 0.023 µmol/g of wet tissue
AMP [3, 5]: 0.044 ± 0.005 µmol/g of wet tissue
ATP [3, 5]: 2.60 ± 0.02 µmol/g of wet tissue
Glucose [3, 5]: 0.64 ± 0.04 µmol/g of wet tissue
Lactate [3, 5]: 7.42 ± 0.42 µmol/g of wet tissue
P-creatine [3, 5]: 2.40 ± 0.09 µmol/g of wet tissue
ECP (Energy charge potential) [3, 5]: 0.905 ± 0.004
